Data: US6376490B1, “Quinoxalinediones” (Pfizer Inc, priority 1997, dated 2002)
Where a name gives a salt, the structure may show the parent alone.

Biological target: T1, glycine site of the NMDA receptor (Rattus norvegicus, UniProt P35439)
T1 construct: from tissue; host or cells: rat brain membranes
Assay: Displacement of [3H]-L-689,560 from rat brain membranes (NMDA glycine site binding)
Settings: [3H]-L-689,560 method, tris-acetate buffer pH 7.4, 90 minutes, read-out: IC50 (nM), binding affinity for the glycine site of the NMDA receptor
Method: J. Pharm., 104, 74 (1991).
The binding affinities of a selection of the compounds of the Examples for the glycine site of the NMDA receptor were measured using the [^3H]-L-689,560 method described on page 20 of the description.

| IC50 | Compound |
| --- | --- |
| 4 nM | Cc1nnc(-c2ccccc2)n1-c1c(Cl)c(Cl)cc2[nH]c(=O)c(=O)[nH]c12 [Example 73] |
| 19 nM | Cn1ncnc1-c1c(Cl)c(Cl)cc2[nH]c(=O)c(=O)[nH]c12 [Example 20] |

Test system: not given
Assay: not given
Settings: not given

| melting point | Compound |
| --- | --- |
| > 300 °C | O=c1[nH]c2cc(Cl)c(Cl)c(-c3ccncc3)c2[nH]c1=O [Example 1, 6,7-Dichloro-5-(4-pyridyl)-2,3(1H,4H)-quinoxalinedione] |
| 274 to 276 °C | Cc1nnc(-c2ccccc2)n1-c1c(Cl)c(Cl)cc2[nH]c(=O)c(=O)[nH]c12 (as salt: HCl) (hydrate or solvate) [Example 73] |

The next lines start with the compound.

| Compound | melting point |
| --- | --- |
| COC(=O)Cn1nnnc1-c1c(Cl)c(Cl)cc2[nH]c(=O)c(=O)[nH]c12 [Example 108, 6,7-Dichloro-5-(1-methoxycarbonylmethyltetrazol-5-yl)-2,3(1H,4H)-quinoxalinedione] | 281 to 283 °C |
| COCc1nnc(-c2cccnc2)n1-c1c(C)c(Cl)cc2[nH]c(=O)c(=O)[nH]c12 [Example 110, 7-Chloro-6-methyl-5-[5-methoxymethyl-3-(3-pyridyl)-4H-1,2,4-triazol-4-yl]-2,3(1H,4H)-quinoxalinedione] | > 300 °C |
| COCc1nnc(-c2cccnc2)n1-c1c(Cl)c(C)cc2[nH]c(=O)c(=O)[nH]c12 [Example 109, 6-Chloro-7-methyl-5-[5-methoxymethyl-3-(3-pyridyl)-4H-1,2,4-triazol-4-yl]-2,3(1H,4H)-quinoxalinedione] | 229 to 231 °C |
| Cn1ncnc1-c1c(Cl)c(Cl)cc2[nH]c(=O)c(=O)[nH]c12 (hydrate or solvate) [Example 20] | > 300 °C |
| O=C(O)Cn1nnnc1-c1c(Cl)c(Cl)cc2[nH]c(=O)c(=O)[nH]c12 (hydrate or solvate) [Example 8, 6,7-dichloro-5-(1-carboxymethyltetrazol-5-yl)-2,3(1H,4H)-quinoxalinedione] | 286 to 287 °C |
